Data: ChEMBL document CHEMBL1817628, “Structure-based design of new DHFR-based antibacterial agents: 7-aryl-2,4-diaminoquinazolines” (Bioorg Med Chem Lett, 2011)
pKi: −log10 of the molar value. Values after ≈ are worked out from the molar mass of the structure shown.

Legend:
Staphylococcus aureus [1] = assay: Antibacterial activity against Staphylococcus aureus Smith ATCC 13709 by CLSI microdilution method; type: functional
Staphylococcus aureus [2] = assay: Antibacterial activity against Staphylococcus aureus Smith ATCC 13709 in presence of 20% mouse serum by CLSI microdilution method; type: functional
Enterococcus faecalis = assay: Antibacterial activity against Enterococcus faecalis ATCC 29212 by CLSI microdilution method; type: functional
Haemophilus influenzae = assay: Antibacterial activity against ampicillin-resistant Haemophilus influenzae ATCC 49247 by CLSI microdilution method; type: functional
Escherichia coli = assay: Antibacterial activity against Escherichia coli ATCC 35218 by CLSI microdilution method; type: functional
Dihydrofolate reductase [3] = target: Dihydrofolate reductase (Staphylococcus aureus, UniProt P0A017); assay: Inhibition of Staphylococcus aureus DHFR assessed as oxidation of NADPH using dihydrofolate as substrate pre-incubated for 10 mins before substrate addition by spectrophotometry
[4] = Inhibition of Haemophilus influenzae DHFR assessed as oxidation of NADPH using dihydrofolate as substrate pre-incubated for 10 mins before substrate addition by spectrophotometry
Dihydrofolate reductase [5] = target: T1, Dihydrofolate reductase (Homo sapiens, UniProt P00374); assay: Inhibition of human DHFR assessed as oxidation of NADPH using dihydrofolate as substrate pre-incubated for 10 mins before substrate addition by spectrophotometry
T1 sequence (P00374 whole entry): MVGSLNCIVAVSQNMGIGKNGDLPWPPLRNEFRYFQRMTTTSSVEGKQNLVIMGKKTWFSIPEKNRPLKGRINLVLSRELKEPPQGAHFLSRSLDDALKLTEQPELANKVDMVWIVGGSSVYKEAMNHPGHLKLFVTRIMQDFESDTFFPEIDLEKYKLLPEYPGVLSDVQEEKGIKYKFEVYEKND

Staphylococcus aureus [6] = assay: Antibacterial activity against TMP-resistant Staphylococcus aureus harboring DHFR F99Y mutant by CLSI microdilution method; type: functional
Dihydrofolate reductase [7] = target: Dihydrofolate reductase (Staphylococcus aureus, UniProt P0A017, F99Y); assay: Inhibition of TMP-resistant Staphylococcus aureus DHFR F99Y mutant assessed as oxidation of NADPH using dihydrofolate as substrate pre-incubated for 10 mins before substrate addition by spectrophotometry

Row | Compound | MIC (Staphylococcus aureus [1]) [µg/mL] | MIC (Staphylococcus aureus [2]) [µg/mL] | MIC (Enterococcus faecalis) [µg/mL] | MIC (Haemophilus influenzae) [µg/mL] | MIC (Escherichia coli) [µg/mL] | pKi (Dihydrofolate reductase [3]) | pKi [4] | pKi (Dihydrofolate reductase [5]) | MIC (Staphylococcus aureus [6]) [µg/mL] | pKi (Dihydrofolate reductase [7])
1 | Cc1cc2c(N)nc(N)nc2cc1-c1ccccc1 | 1 (≈ 4 µM) | 2 | 0.5 (≈ 2 µM) | 2 (≈ 7.99 µM) | 8 (≈ 32 µM) | 8.80 | 11.14 | 6.89 |  | 
2 | CCOc1ccc2[nH]ccc2c1-c1cc2nc(N)nc(N)c2cc1C | 0.25 (≈ 0.75 µM) | 1 | 0.25 (≈ 0.75 µM) | 16 (≈ 48 µM) | 8 (≈ 24 µM) | 9.21 | 10.09 | 6.61 |  | 
3 | CCOc1ccc(C=O)cc1-c1cc2nc(N)nc(N)c2cc1C | 1 (≈ 3.1 µM) | 1 | 0.5 (≈ 1.55 µM) | 2 (≈ 6.2 µM) | 16 (≈ 49.6 µM) | 9.62 | 9.66 | 7.92 |  | 
4 | Cc1cc2c(N)nc(N)nc2cc1-c1ccccc1C(C)C | 0.25 (≈ 0.855 µM) | 1 | 0.5 (≈ 1.71 µM) | 8 (≈ 27.4 µM) | 16 (≈ 54.7 µM) | 9.89 | 10.43 | 7.68 |  | 
5 | CCc1ccccc1-c1cc2nc(N)nc(N)c2cc1C | 0.25 (≈ 0.898 µM) | 0.5 | 0.25 (≈ 0.898 µM) | 8 (≈ 28.7 µM) | 8 (≈ 28.7 µM) | 9.72 | 10.49 | 7.39 |  | 
6 | Cc1cc2c(N)nc(N)nc2cc1-c1ccc(N)cc1 | 1 (≈ 3.77 µM) | 1 | 0.5 (≈ 1.88 µM) | 2 (≈ 7.54 µM) | 8 (≈ 30.2 µM) |  | 11.74 |  |  | 
7 | COc1ccc(-c2cc3nc(N)nc(N)c3cc2C)cc1OC | 0.5 (≈ 1.61 µM) | 0.5 | 0.5 (≈ 1.61 µM) | 4 (≈ 12.9 µM) | 8 (≈ 25.8 µM) | 9.46 | 11.74 | 7.91 |  | 
8 | CC(=O)c1cccc(-c2ccc3c(N)nc(N)nc3c2)c1 | 4 (≈ 14.4 µM) | 8 | 4 (≈ 14.4 µM) | 64 (≈ 230 µM) | 32 (≈ 115 µM) |  | 9.51 |  |  | 
9 | CCOc1ccc(-c2cccc(NS(C)(=O)=O)c2)cc1-c1ccc2c(N)nc(N)nc2c1 | 0.5 (≈ 1.11 µM) | 2 | 0.5 (≈ 1.11 µM) | 8 (≈ 17.8 µM) | 64 (≈ 142 µM) |  | 11.31 |  |  | 
10 | COc1ccc(OC)c(-c2cc3nc(N)nc(N)c3cc2C)c1 | 1 (≈ 3.22 µM) | 1 | 4 (≈ 12.9 µM) | 8 (≈ 25.8 µM) | 16 (≈ 51.6 µM) |  | 10.85 |  |  | 
11 | CCOc1ccc2ccccc2c1-c1cc2nc(N)nc(N)c2cc1C | 0.125 (≈ 0.363 µM) | 0.5 | 0.5 (≈ 1.45 µM) | 16 (≈ 46.5 µM) | 16 (≈ 46.5 µM) |  | 10.82 |  | 1 (≈ 2.9 µM) | 8.62
12 | COc1cc(Cc2cnc(N)nc2N)c2c(c1OC)OC(C1CC1)C=C2 (stereo not given) | 0.13 (≈ 0.367 µM) | 0.13 | 0.03 (≈ 0.0846 µM) | 1 (≈ 2.82 µM) | 4 (≈ 11.3 µM) |  | 11.15 |  | 2 (≈ 5.64 µM) | 
13 | CCOc1ccc(C(=O)N(CC)CC)cc1-c1cc2nc(N)nc(N)c2cc1C | 0.5 (≈ 1.27 µM) | 0.5 | 0.5 (≈ 1.27 µM) | 64 (≈ 163 µM) | 64 (≈ 163 µM) |  | 10.89 |  | 8 (≈ 20.3 µM) | 8.22
